According to US20240148821A1, “PHARMACEUTICAL USE OF CYCLIC PEPTIDE COMPOUND” (CHUGAI SEIYAKU KABUSHIKI KAISHA, priority 2021, published 2024):
pIC50: −log10 of the molar value. Numbered stars: 1 amine (or outer) side, 2 acyl side, 3 side chain; on linkers, the order of the positions; unused ones are H or OH. Bridge positions count the residues as written; N and C are the ends. Square brackets hold non-standard residues; d marks the D form. Peptide text beside a SMILES is read from it. * marks the point of attachment. hPhe(3-Cl-4-CF3) = N[C@@H](CCc1ccc(C(F)(F)F)c(Cl)c1)C(=O)O; hPhe(3-F,4-CF3) = N[C@@H](CCc1ccc(C(F)(F)F)c(F)c1)C(=O)O; NMePhe(4-CF3) = CN[C@@H](Cc1ccc(C(F)(F)F)cc1)C(=O)O; NPrAsp = CCCN([C@@H](CC(=O)[*:3])C(=O)[*:2])[*:1]; X24 = COc1cncc(C[C@@H](C(=O)[*:2])N(C)[*:1])c1; X25 = COc1ccc(C[C@@H](C(=O)[*:2])N(C)[*:1])cn1; 3Oxa8azabicyclo(3.2.1)octane = C1CC2COCC1N2*; NMePhe(3-Me) = CN[C@@H](Cc1cccc(C)c1)C(=O)O; NMePhe(4-Me) = CN[C@@H](Cc1ccc(C)cc1)C(=O)O; NMedβ3hAla = C[C@H](CC(=O)[*:2])N(C)[*:1]; NMeGly(cPent) = CN[C@H](C(=O)O)C1CCCC1; dβ3hPip = O=C(C[C@H]1CCCCN1[*:1])[*:2]; NMeGly(cBu) = CN[C@H](C(=O)O)C1CCC1; NMeCha = CN[C@@H](CC1CCCCC1)C(=O)O; NMehLeu = CN[C@@H](CCC(C)C)C(=O)O; NMeAhp(2) = CCCCC[C@H](NC)C(=O)O; NMeChg = CN[C@H](C(=O)O)C1CCCCC1; NMeI = CC[C@H](C)[C@H](NC)C(=O)O; Gly(cPr) = N[C@H](C(=O)O)C1CC1; NMeD = CN[C@@H](CC(=O)O)C(=O)O; NMeL = CN[C@@H](CC(C)C)C(=O)O; NEtAla = CCN[C@@H](C)C(=O)O; NMeV = CN[C@H](C(=O)O)C(C)C; d(β3hA) = C[C@@H](N)CC(=O)O; NMeC = CN[C@@H](CS)C(=O)O; NMeS = CN[C@@H](CO)C(=O)O; Morpholide = C1CN(*)CCO1; NMeA = CN[C@@H](C)C(=O)O; NMeAib = CNC(C)(C)C(=O)O; Piperidide = C1CCN(*)CC1; Pyrrolidide = C1CCN(*)C1; Ac5c = NC1(C(=O)O)CCCC1; Aze = O=C(O)[C@@H]1CCN1; NEtG = CCNCC(=O)O; Sar = CNCC(=O)O; Propyl = CCC*

Legend:
[1] = target: protein-protein interaction between Kras and SOS1 (biotin-tagged human Kras loaded with GDP, His-tagged human SOS1) (Homo sapiens (Human), UniProt P01116, G12D); assay: Protein-protein interaction inhibition between Kras and SOS1 (KrasG12D-SOS PPI) using AlphaScreen; type: biochemical; settings: AlphaScreen; biotin-tagged human Kras loaded with GDP, His-tagged human SOS1; read-out: KRAS G12D-SOS PPI IC50;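 also: kras produced in E. coli, Ni-coupled donor beads and streptavidin acceptor beads, excitation 680 nm with emission detected at 520–620 nm via singlet oxygen transfer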
[2] = tested on: Human pancreatic cancer cell line AsPC-1 (G12D mutation Kras); assay: AsPC-1 cell growth inhibition (AsPC-1 CGI); type: cell-based; settings: read-out: AsPC-1 cell growth inhibition, 50% growth inhibitory concentration (IC50 value); 96 hours, CellTiter-Glo, values classified in ranges

| SMILES | pIC50 [1] | pIC50 [2] |
| --- | --- | --- |
| CC[C@H](C)[C@@H]1NC(=O)[C@H](CC(C)C)N(C)C(=O)C[C@@H](C(=O)N2CCCCC2)N(C)C(=O)[C@H](C2CCCCC2)N(C)C(=O)C2(CCCC2)NC(=O)[C@H](Cc2cncc(OC)c2)N(C)C(=O)[C@H](CCc2ccc(C(F)(F)F)c(Cl)c2)NC(=O)CN(C)C(=O)[C@H](CC2CCCCC2)N(C)C(=O)CN(C)C(=O)CN(C)C1=O [Compound 887] ([NMeL]I[Sar][Sar][NMeCha][Sar][hPhe(3-Cl-4-CF3)][X24][Ac5c][NMeChg][NMeD]-Piperidide; lactam N-11) | 8.21 | < 6.30 |
| CC[C@H](C)[C@@H]1NC(=O)[C@H](CC(C)C)N(C)C(=O)C[C@@H](C(=O)N2C3CCC2COC3)NC(=O)[C@H](C(C)C)N(C)C(=O)C2(CCCC2)NC(=O)[C@@H]2CCCN2C(=O)[C@H](CCc2ccc(C(F)(F)F)c(Cl)c2)NC(=O)CN(C)C(=O)[C@H](CC2CCCCC2)N(C)C(=O)[C@@H]2CCN2C(=O)[C@H](C)N(C)C1=O [Compound 1214] ([NMeL]I[NMeA][Aze][NMeCha][Sar][hPhe(3-Cl-4-CF3)]P[Ac5c][NMeV]D-{3Oxa8azabicyclo(3.2.1)octane}; lactam N-11) | 7.11 | < 6.30 |
| CC[C@H](C)[C@@H]1NC(=O)[C@H](C)N(C)C(=O)C[C@@H](C)NC(=O)[C@H](C2CCCC2)N(C)C(=O)C2(CCCC2)NC(=O)[C@@H]2CCCN2C(=O)[C@H](CCc2ccc(C(F)(F)F)c(Cl)c2)NC(=O)CN(C)C(=O)[C@H](Cc2cccc(C)c2)N(C)C(=O)[C@@H]2CCCN2C(=O)CN(C)C1=O [Compound 1083] (cyclo([Ac5c][NMeGly(cPent)][d(β3hA)][NMeA]I[Sar]P[NMePhe(3-Me)][Sar][hPhe(3-Cl-4-CF3)]P)) | 7.72 | < 6.30 |
| CCCOC[C@H]1C(=O)N(C)CC(=O)N[C@@H](CCc2ccc(C(F)(F)F)c(F)c2)C(=O)N2CCC[C@H]2C(=O)NC2(CCCC2)C(=O)N(C)[C@@H]([C@@H](C)CC)C(=O)N(C)[C@H](C(=O)N(C)C)CC(=O)N(C)[C@@H](CC(C)C)C(=O)N[C@@H]([C@@H](C)CC)C(=O)N(C)[C@@H](C)C(=O)N2CC[C@H]2C(=O)N1C [Compound 316] ([NMeL]I[NMeA][Aze][NMeS](Propyl)[Sar][hPhe(3-F,4-CF3)]P[Ac5c][NMeI][NMeD]-NMe2; lactam N-11) | 8.48 | ≥ 7.70 |
| CC(C)C[C@H]1C(=O)N[C@@H](C2CC2)C(=O)N(C)[C@@H](C)C(=O)N2CC[C@H]2C(=O)N(C)[C@@H](CC2CCCCC2)C(=O)N(C)CC(=O)N[C@@H](CCc2ccc(C(F)(F)F)c(Cl)c2)C(=O)N2CCC[C@H]2C(=O)NC2(CCCC2)C(=O)N(C)[C@@H](C(C)C)C(=O)N(C)[C@H](C(=O)N2CCCCC2)CC(=O)N1C [Compound 280] ([NMeL][Gly(cPr)][NMeA][Aze][NMeCha][Sar][hPhe(3-Cl-4-CF3)]P[Ac5c][NMeV][NMeD]-Piperidide; lactam N-11) | 7.62 | < 6.30 |
| CC[C@H](C)[C@@H]1NC(=O)[C@H](CC(C)C)N(C)C(=O)C[C@@H](C(=O)N(C)C)N(C)C(=O)[C@H](C2CCCC2)N(C)C(=O)C2(CCCC2)NC(=O)[C@@H]2CCCN2C(=O)[C@H](CCc2ccc(C(F)(F)F)c(F)c2)NC(=O)CN(C)C(=O)[C@H](CC2CCCCC2)N(C)C(=O)[C@@H]2CCN2C(=O)[C@H](C)N(C)C1=O [Compound 334] ([NMeL]I[NMeA][Aze][NMeCha][Sar][hPhe(3-F,4-CF3)]P[Ac5c][NMeGly(cPent)][NMeD]-NMe2; lactam N-11) | 9.30 | ≥ 7.70 |
| CCCN1C(=O)[C@H](C2CCCC2)N(C)C(=O)C2(CCCC2)NC(=O)[C@@H]2CCCN2C(=O)[C@H](CCc2ccc(C(F)(F)F)c(Cl)c2)NC(=O)CN(C)C(=O)[C@H](C2CCC2)N(C)C(=O)[C@@H]2CCN2C(=O)[C@H](C)N(C)C(=O)[C@H]([C@@H](C)CC)NC(=O)[C@H](CC(C)C)N(C)C(=O)C[C@H]1C(=O)N1CCCCC1 [Compound 524] ([NMeL]I[NMeA][Aze][NMeGly(cBu)][Sar][hPhe(3-Cl-4-CF3)]P[Ac5c][NMeGly(cPent)][NPrAsp]-Piperidide; lactam N-11) | 7.09 | < 6.30 |
| CC[C@H](C)[C@@H]1NC(=O)[C@H](CC(C)C)N(C)C(=O)C[C@@H](C(=O)N2CCCCC2)N(C)C(=O)[C@H](C2CCCCC2)N(C)C(=O)C2(CCCC2)NC(=O)[C@H](Cc2ccc(OC)nc2)N(C)C(=O)[C@H](CCc2ccc(C(F)(F)F)c(Cl)c2)NC(=O)CN(C)C(=O)[C@H](CC2CCCCC2)N(C)C(=O)CN(C)C(=O)CN(C)C1=O [Compound 592] ([NMeL]I[Sar][Sar][NMeCha][Sar][hPhe(3-Cl-4-CF3)][X25][Ac5c][NMeChg][NMeD]-Piperidide; lactam N-11) | 7.59 | < 6.30 |
| CC[C@H](C)[C@@H]1NC(=O)[C@H](CCC(C)C)N(C)C(=O)C[C@@H](C(=O)N2CCCC2)N(C)C(=O)[C@H]([C@@H](C)CC)N(C)C(=O)C2(CCCC2)NC(=O)[C@@H]2CCCN2C(=O)[C@H](CCc2ccc(C(F)(F)F)c(Cl)c2)NC(=O)CN(C)C(=O)[C@H](Cc2ccc(C(F)(F)F)cc2)N(C)C(=O)[C@@H]2CCN2C(=O)[C@H](C)NC1=O [Compound 1310] ([NMehLeu]IA[Aze][NMePhe(4-CF3)][Sar][hPhe(3-Cl-4-CF3)]P[Ac5c][NMeI][NMeD]-Pyrrolidide; lactam N-11) | 9.06 | ≥ 7.70 |
| CCCCC[C@H]1C(=O)N(C)[C@H](C(=O)N2CCCCC2)CC(=O)N(C)[C@@H](CC(C)C)C(=O)N[C@@H]([C@@H](C)CC)C(=O)N(C)[C@@H](C)C(=O)N2CC[C@H]2C(=O)N(C)[C@@H](CC2CCCCC2)C(=O)N(C)CC(=O)N[C@@H](CCc2ccc(C(F)(F)F)c(Cl)c2)C(=O)N2CCC[C@H]2C(=O)NC2(CCCC2)C(=O)N1C [Compound 1707] ([NMeL]I[NMeA][Aze][NMeCha][Sar][hPhe(3-Cl-4-CF3)]P[Ac5c][NMeAhp(2)][NMeD]-Piperidide; lactam N-11) | 6.74 | < 6.30 |
| CCCOC[C@H]1C(=O)N(C)CC(=O)N[C@@H](CCc2ccc(C(F)(F)F)c(Cl)c2)C(=O)N2CCC[C@H]2C(=O)NC2(CCCC2)C(=O)N(C)[C@@H]([C@@H](C)CC)C(=O)N(C)[C@H](C)CC(=O)N(C)[C@@H](CC(C)C)C(=O)N[C@@H]([C@@H](C)CC)C(=O)N(C)[C@@H](C)C(=O)N2CC[C@H]2C(=O)N1C [Compound 529] (cyclo([Ac5c][NMeI][NMedβ3hAla][NMeL]I[NMeA][Aze][NMeS](Propyl)[Sar][hPhe(3-Cl-4-CF3)]P)) | 8.09 | ≥ 7.70 |
| CC[C@H](C)[C@@H]1NC(=O)[C@H](CC(C)C)N(C)C(=O)C[C@H]2CCCCN2C(=O)[C@H](CC(C)C)NC(=O)C(C)(C)N(C)C(=O)[C@H](CC(C)C)NC(=O)[C@H](CCc2ccc(C(F)(F)F)c(F)c2)NC(=O)CN(C)C(=O)[C@H](CC2CCCCC2)N(C)C(=O)CN(C)C(=O)CN(C)C1=O [Compound 1095] (cyclo(I[Sar][Sar][NMeCha][Sar][hPhe(3-F,4-CF3)]L[NMeAib]L[dβ3hPip][NMeL])) | 7.34 | < 6.30 |
| CC[C@H](C)[C@@H]1NC(=O)[C@H](CC(C)C)N(C)C(=O)CSC[C@@H](C(=O)N(C)C)N(C)C(=O)[C@H](C2CCCC2)N(C)C(=O)C2(CCCC2)NC(=O)[C@@H]2CCCN2C(=O)[C@H](CCc2ccc(C(F)(F)F)c(Cl)c2)NC(=O)CN(C)C(=O)[C@H](Cc2ccc(C)cc2)N(C)C(=O)[C@@H]2CCN2C(=O)[C@H](C)N(C)C1=O [Compound 2177] ({CH2CO}-[NMeL]I[NMeA][Aze][NMePhe(4-Me)][Sar][hPhe(3-Cl-4-CF3)]P[Ac5c][NMeGly(cPent)][NMeC]-NMe2; thioether N-11) | 6.60 | < 6.30 |
| CC[C@H](C)[C@@H]1NC(=O)[C@H](CC(C)C)N(C)C(=O)C[C@@H](C(=O)N2CCCCC2)N(C)C(=O)[C@H](C(C)C)N(C)C(=O)C2(CCCC2)NC(=O)[C@@H]2CCCN2C(=O)[C@H](CCc2ccc(C(F)(F)F)c(Cl)c2)NC(=O)CN(C)C(=O)[C@H](CC2CCCCC2)N(C)C(=O)[C@@H]2CCN2C(=O)[C@H](C)N(CC)C1=O [Compound 443] ([NMeL]I[NEtAla][Aze][NMeCha][Sar][hPhe(3-Cl-4-CF3)]P[Ac5c][NMeV][NMeD]-Piperidide; lactam N-11) | 7.52 | < 6.30 |
| CC[C@H](C)[C@@H]1NC(=O)[C@H](CC(C)C)N(C)C(=O)C[C@@H](C(=O)N2CCOCC2)N(C)C(=O)[C@H]([C@@H](C)CC)N(C)C(=O)C2(CCCC2)NC(=O)[C@@H]2CCCN2C(=O)[C@H](CCc2ccc(C(F)(F)F)c(Cl)c2)NC(=O)CN(C)C(=O)[C@H](C2CCCC2)N(C)C(=O)[C@@H]2CCN2C(=O)[C@H](C)N(C)C1=O [Compound 381] ([NMeL]I[NMeA][Aze][NMeGly(cPent)][Sar][hPhe(3-Cl-4-CF3)]P[Ac5c][NMeI][NMeD]-Morpholide; lactam N-11) | 8.80 | ≥ 7.70 |
| CC[C@H](C)[C@@H]1NC(=O)[C@H](CC(C)C)N(C)C(=O)C[C@@H](C(=O)N(C)C)N(C)C(=O)[C@H]([C@@H](C)CC)N(C)C(=O)C2(CCCC2)NC(=O)[C@@H]2CCCN2C(=O)[C@H](CCc2ccc(C(F)(F)F)c(Cl)c2)NC(=O)CN(CC)C(=O)[C@H](Cc2ccc(C)cc2)N(C)C(=O)[C@@H]2CCN2C(=O)[C@H](C)N(C)C1=O [Compound 1120] ([NMeL]I[NMeA][Aze][NMePhe(4-Me)][NEtG][hPhe(3-Cl-4-CF3)]P[Ac5c][NMeI][NMeD]-NMe2; lactam N-11) | 8.60 | ≥ 7.70 |
